From patent US10167262B2, “Herbicidal substituted 3-arylpyrazoles” (FMC CORPORATION, priority 2014, dated 2019)
Where two headings read alike, the source gives them in different places.

Experiments:
Assay type in all cases: in vivo
[1] = tested on: blackgrass (Alopecurus myosuroides); test: Test C pre-/postemergence greenhouse test, plant response rating 0-100; conditions: Alopecurus myosuroides; for pest or weed control at 62 g/ha: 62 g ai/ha; for pest or weed control at 125 g/ha: 125 g ai/ha; for pest or weed control at 250 g/ha: 250 g ai/ha
In short: (§1)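 Scores run from 0, no effect, to 100, complete control, assigned by eye after treated plants and controls spent 13 to 15 days in a greenhouse. Soil-applied treatment went onto freshly sown seed in loam and sand; foliar treatment hit seedlings at the 1- to 4-leaf stage.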

[2] = tested on: ragweed (common ragweed, Ambrosia elatior); test: as above; conditions: Ambrosia artemisiifolia; for pest or weed control at 62 g/ha: 62 g ai/ha; for pest or weed control at 125 g/ha: 125 g ai/ha; for pest or weed control at 250 g/ha: 250 g ai/ha
In short: as §1

wild oat (Avena fatua) = test: Test C postemergence greenhouse test, plant response rating 0-100; conditions: Avena fatua, post-emergence
From the text: (§2) At the same time, plants selected from these crop and weed species and also winter barley (Hordeum vulgare), bermudagrass (Cynodon dactylon), downy bromegrass (Bromus tectorum), canarygrass (Phalaris minor), cocklebur (common cocklebur, Xanthium strumarium), woolly cupgrass (Eriochloa villosa), deadnettle (henbit deadnettle, Lamium amplexicaule), green foxtail (Setaria viridis), goosegrass (Eleusine indica), surinam grass (Brachiaria decumbens), windgrass (Apera spica-venti), chickweed (common chickweed, Stellaria media), kochia (Kochia scoparia), and wild oat (Avena fatua), were planted in pots containing Redi-Earth® planting medium (Scotts Company, 14111 Scottslawn Road, Marysville, Ohio 43041) comprising spaghnum peat moss, vermiculite, wetting agent and starter nutrients and treated with postemergence applications of test chemicals formulated in the same manner. Plants ranged in height from 2 to 18 cm (1- to 4-leaf stage) for postemergence treatments. Treated plants and controls were maintained in a greenhouse for 13 to 15 days, after which time all species were compared to controls and visually evaluated. Plant response ratings, summarized in Table C, are based on a scale of 0 to 100 where 0 is no effect and 100 is complete control. A dash (-) response means no test result.

[3] = tested on: chickweed (common chickweed, Stellaria media); test: as above; conditions: Stellaria media, post-emergence
From the text: as §2

kochia (Kochia scoparia) = test: as above; conditions: Bassia scoparia, post-emergence
From the text: as §2

[4] = tested on: barnyardgrass (Echinochloa crus-galli); test: Test A pre-/postemergence greenhouse herbicide test, visual injury rating 0-100; conditions: for pest or weed control at 500 g/ha: 500 g ai/ha
In short: (§3)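 Formulated in non-phytotoxic solvent with surfactant, compounds were applied pre- and postemergence simultaneously. Soil: loam–sand blend. Visual injury, 0 = no effect to 100 = complete control, ~10 days.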

[5] = tested on: pigweed (Amaranthus retroflexus); test: as above; conditions: for pest or weed control at 500 g/ha: 500 g ai/ha
In short: as §3

[6] = tested on: large (Lg) crabgrass (Digitaria sanguinalis); test: as above; conditions: for pest or weed control at 500 g/ha: 500 g ai/ha
In short: as §3

[7] = tested on: velvetleaf (Abutilon theophrasti); test: as above; conditions: for pest or weed control at 500 g/ha: 500 g ai/ha
In short: as §3

[8] = tested on: giant foxtail (Setaria faberii); test: as above; conditions: for pest or weed control at 500 g/ha: 500 g ai/ha
In short: as §3

[9] = tested on: wheat (Triticum aestivum); test: as above; conditions: for plant injury at 500 g/ha: 500 g ai/ha
In short: as §3

[10] = tested on: morningglory (Ipomoea spp.); test: as above; conditions: for pest or weed control at 500 g/ha: 500 g ai/ha
In short: as §3

corn (Zea mays) = test: as above; conditions: for plant injury at 500 g/ha: 500 g ai/ha
In short: as §3

[11] = post-emergence, Postemergence, read-out: Plant response rating (0 to 100), Blackgrass
[12] = post-emergence, Postemergence, scale 0 to 100
[13] = pre-emergence, Preemergence, read-out: Plant response rating, Blackgrass
[14] = post-emergence, Postemergence, read-out: Plant response rating (0 to 100), Ragweed
[15] = pre-emergence, Preemergence, read-out: Plant response rating, Ragweed

Question: How did the pest or weed control at 31 g/ha ([1]; post-emergence, Postemergence, 31 g ai/ha, read-out: Plant response rating (0 to 100), Blackgrass) turn out when `Cn1cc(C(=O)c2ccccc2)c(-c2cc(Cl)cc(Cl)c2)n1` [Compound 54, [3-(3,5-dichlorophenyl)-1-methyl-1H-pyrazol-4-yl]phenylmethanone] was run?
Answer: 0%

Question: What about the pest or weed control at 62 g/ha [1, 11] of the same compound?
Answer: 0%

Question: And the pest or weed control at 125 g/ha [1, 11]?
Answer: 0%

Question: And the pest or weed control at 250 g/ha [1, 12]?
Answer: 0%

Question: What about the pest or weed control at 62 g/ha [1, 13] of the same compound?
Answer: 0%

Question: And the pest or weed control at 125 g/ha [1, 13]?
Answer: 0%

Question: What about the pest or weed control at 250 g/ha ([1]; pre-emergence, Preemergence) of the same compound?
Answer: 0%

Question: And the pest or weed control at 62 g/ha [2, 14]?
Answer: 0%

Question: And the pest or weed control at 125 g/ha [2, 14]?
Answer: 0%

Question: And the pest or weed control at 250 g/ha [2, 12]?
Answer: 20%

Question: And the pest or weed control at 62 g/ha [2, 15]?
Answer: 5%

Question: What about the pest or weed control at 125 g/ha [2, 15] of the same compound?
Answer: 15%

Question: What about the pest or weed control at 250 g/ha ([2]; pre-emergence, Preemergence) of the same compound?
Answer: 15%

Question: And the pest or weed control at 500 g/ha ([2]; pre-emergence, Preemergence, 500 g ai/ha)?
Answer: 40%

Question: And the pest or weed control at 62 g/ha (wild oat (Avena fatua); 62 g ai/ha)?
Answer: 0%

Question: And the pest or weed control at 125 g/ha (wild oat (Avena fatua); 125 g ai/ha)?
Answer: 0%

Question: And the pest or weed control at 250 g/ha (wild oat (Avena fatua); 250 g ai/ha, scale 0 to 100)?
Answer: 0%

Question: What about the pest or weed control at 31 g/ha ([3]; 31 g ai/ha) of the same compound?
Answer: 0%

Question: And the pest or weed control at 62 g/ha ([3]; 62 g ai/ha)?
Answer: 90%

Question: What about the pest or weed control at 125 g/ha ([3]; 125 g ai/ha) of the same compound?
Answer: 100%

Question: What about the pest or weed control at 250 g/ha ([3]; 250 g ai/ha, scale 0 to 100) of the same compound?
Answer: 100%

Question: What about the pest or weed control at 62 g/ha (kochia (Kochia scoparia); 62 g ai/ha) of the same compound?
Answer: 60%

Question: What about the pest or weed control at 125 g/ha (kochia (Kochia scoparia); 125 g ai/ha) of the same compound?
Answer: 65%

Question: What about the pest or weed control at 250 g/ha (kochia (Kochia scoparia); 250 g ai/ha, scale 0 to 100) of the same compound?
Answer: 70%

Question: And the pest or weed control at 125 g/ha ([4]; Echinochloa crus-galli, post-emergence, 240 h, Postemergence, 125 g ai/ha, read-out: Plant response rating (0 to 100 scale), Barnyardgrass)?
Answer: 0%

Question: And the pest or weed control at 500 g/ha ([4]; Echinochloa crus-galli, post-emergence, 240 h, Postemergence, read-out: Plant response rating (0 to 100 scale), Barnyardgrass)?
Answer: 0%

Question: What about the pest or weed control at 500 g/ha ([4]; Echinochloa crus-galli, pre-emergence, 240 h, Preemergence, read-out: Plant response rating (0 to 100 scale), Barnyardgrass) of the same compound?
Answer: 0%

Question: And the “Barnyardgrass plant response rating (0 = no effect, 100 = complete control)” value ([4]; Preemergence, 125 g ai/ha)?
Answer: 0

Question: What about the pest or weed control at 125 g/ha ([5]; Amaranthus retroflexus, post-emergence, 240 h, Postemergence, 125 g ai/ha, read-out: Plant response rating (0 to 100 scale), Pigweed) of the same compound?
Answer: 90%

Question: And the pest or weed control at 500 g/ha ([5]; Amaranthus retroflexus, post-emergence, 240 h, Postemergence, read-out: Plant response rating (0 to 100 scale), Pigweed)?
Answer: 100%

Question: And the pest or weed control at 500 g/ha ([5]; Amaranthus retroflexus, pre-emergence, 240 h, Preemergence, read-out: Plant response rating (0 to 100 scale), Pigweed)?
Answer: 90%

Question: What about the “Pigweed plant response rating (0 = no effect, 100 = complete control)” value ([5]; Preemergence, 125 g ai/ha) of the same compound?
Answer: 50

Question: And the pest or weed control at 125 g/ha ([6]; Digitaria sanguinalis, post-emergence, 240 h, Postemergence, 125 g ai/ha, read-out: Plant response rating (0 to 100 scale), Crabgrass, Large)?
Answer: 0%

Question: What about the pest or weed control at 500 g/ha ([6]; Digitaria sanguinalis, post-emergence, 240 h, Postemergence, read-out: Plant response rating (0 to 100 scale), Crabgrass, Large) of the same compound?
Answer: 0%

Question: And the pest or weed control at 500 g/ha ([6]; Digitaria sanguinalis, pre-emergence, 240 h, Preemergence, read-out: Plant response rating (0 to 100 scale), Crabgrass, Large)?
Answer: 0%

Question: And the “Crabgrass, Large plant response rating (0 = no effect, 100 = complete control)” value ([6]; Preemergence, 125 g ai/ha)?
Answer: 0

Question: What about the pest or weed control at 125 g/ha ([7]; Abutilon theophrasti, post-emergence, 240 h, Postemergence, 125 g ai/ha, read-out: Plant response rating (0 to 100 scale), Velvetleaf) of the same compound?
Answer: 90%

Question: What about the pest or weed control at 500 g/ha ([7]; Abutilon theophrasti, post-emergence, 240 h, Postemergence, read-out: Plant response rating (0 to 100 scale), Velvetleaf) of the same compound?
Answer: 100%

Question: What about the pest or weed control at 500 g/ha ([7]; Abutilon theophrasti, pre-emergence, 240 h, Preemergence, read-out: Plant response rating (0 to 100 scale), Velvetleaf) of the same compound?
Answer: 60%

Question: What about the “Velvetleaf plant response rating (0 = no effect, 100 = complete control)” value ([7]; Preemergence, 125 g ai/ha) of the same compound?
Answer: 30

Question: What about the “Foxtail, Giant plant response rating (0 = no effect, 100 = complete control)” value ([8]; Preemergence, 125 g ai/ha) of the same compound?
Answer: 0

Question: What about the pest or weed control at 125 g/ha ([8]; Setaria faberi, post-emergence, 240 h, Postemergence, 125 g ai/ha, read-out: Plant response rating (0 to 100 scale), Foxtail, Giant) of the same compound?
Answer: 0%

Question: And the pest or weed control at 500 g/ha ([8]; Setaria faberi, post-emergence, 240 h, Postemergence, read-out: Plant response rating (0 to 100 scale), Foxtail, Giant)?
Answer: 0%

Question: And the pest or weed control at 500 g/ha ([8]; Setaria faberi, pre-emergence, 240 h, Preemergence, read-out: Plant response rating (0 to 100 scale), Foxtail, Giant)?
Answer: 0%

Question: And the “Wheat plant response rating (0 = no effect, 100 = complete control)” value ([9]; Preemergence, 125 g ai/ha)?
Answer: 0

Question: And the plant injury at 125 g/ha ([9]; Triticum aestivum, post-emergence, 240 h, Postemergence, 125 g ai/ha, read-out: Plant response rating (0 to 100 scale), Wheat)?
Answer: 0%

Question: What about the plant injury at 500 g/ha ([9]; Triticum aestivum, post-emergence, 240 h, Postemergence, read-out: Plant response rating (0 to 100 scale), Wheat) of the same compound?
Answer: 0%

Question: What about the plant injury at 500 g/ha ([9]; Triticum aestivum, pre-emergence, 240 h, Preemergence, read-out: Plant response rating (0 to 100 scale), Wheat) of the same compound?
Answer: 0%

Question: And the pest or weed control at 125 g/ha ([10]; Ipomoea, post-emergence, 240 h, Postemergence, 125 g ai/ha, read-out: Plant response rating (0 to 100 scale), Morningglory)?
Answer: 0%

Question: What about the pest or weed control at 500 g/ha ([10]; Ipomoea, post-emergence, 240 h, Postemergence, read-out: Plant response rating (0 to 100 scale), Morningglory) of the same compound?
Answer: 0%

Question: What about the pest or weed control at 500 g/ha ([10]; Ipomoea, pre-emergence, 240 h, Preemergence, read-out: Plant response rating (0 to 100 scale), Morningglory) of the same compound?
Answer: 0%

Question: And the “Morningglory plant response rating (0 = no effect, 100 = complete control)” value ([10]; Preemergence, 125 g ai/ha)?
Answer: 0

Question: And the “Corn plant response rating (0 = no effect, 100 = complete control)” value (corn (Zea mays); Preemergence, 125 g ai/ha)?
Answer: 0

Question: What about the plant injury at 125 g/ha (corn (Zea mays); Zea mays, post-emergence, 240 h, Postemergence, 125 g ai/ha, read-out: Plant response rating (0 to 100 scale), Corn) of the same compound?
Answer: 0%

Question: And the plant injury at 500 g/ha (corn (Zea mays); Zea mays, post-emergence, 240 h, Postemergence, read-out: Plant response rating (0 to 100 scale), Corn)?
Answer: 0%

Question: What about the plant injury at 500 g/ha (corn (Zea mays); Zea mays, pre-emergence, 240 h, Preemergence, read-out: Plant response rating (0 to 100 scale), Corn) of the same compound?
Answer: 0%
